Experimental data taken from ChEMBL document CHEMBL5052841, “Usp19 inhibitors for use in therapy” (2020).
Calls of active or inactive are those of the source. No cut-off for these calls is given here.

Tests used:
[1] = Toxicity in high-fat diet-induced obesity model of male C57BL/6J mouse assessed as decrease in total protein content at 0.1 mg/kg, sc administered twice daily; type: organism-based; set-up: scale not given: the % may be the effect or the level left; conditions: in vivo
[2] = Toxicity in high-fat diet-induced obesity model of male C57BL/6J mouse assessed as decrease in total body weight at 0.1 mg/kg, sc administered twice daily; type: organism-based; set-up: scale not given: the % may be the effect or the level left; conditions: in vivo
[3] = Toxicity in high-fat diet-induced obesity model of male C57BL/6J mouse assessed as decrease in total ash content at 0.1 mg/kg, sc administered twice daily; type: organism-based; set-up: scale not given: the % may be the effect or the level left; conditions: in vivo
[4] = Toxicity in high-fat diet-induced obesity model of male C57BL/6J mouse assessed as decrease in body water content at 0.1 mg/kg, sc administered twice daily; type: organism-based; set-up: scale not given: the % may be the effect or the level left; conditions: in vivo
[5] = Toxicity in high-fat diet-induced obesity model of male C57BL/6J mouse assessed as reduction in body fat at 0.1 mg/kg, sc administered twice daily; type: organism-based; set-up: scale not given: the % may be the effect or the level left; conditions: in vivo
[6] = molecular target: T1, Ubiquitin carboxyl-terminal hydrolase 19 (Homo sapiens, UniProt O94966); assay: Inhibition of C-terminal His6-tagged recombinant human USP19 using iso-peptide ubiquitin-Lys-TAMRA as substrate incubated for 30 mins and measured after 90 mins by fluorescent polarization assay
T1 sequence (O94966 whole entry): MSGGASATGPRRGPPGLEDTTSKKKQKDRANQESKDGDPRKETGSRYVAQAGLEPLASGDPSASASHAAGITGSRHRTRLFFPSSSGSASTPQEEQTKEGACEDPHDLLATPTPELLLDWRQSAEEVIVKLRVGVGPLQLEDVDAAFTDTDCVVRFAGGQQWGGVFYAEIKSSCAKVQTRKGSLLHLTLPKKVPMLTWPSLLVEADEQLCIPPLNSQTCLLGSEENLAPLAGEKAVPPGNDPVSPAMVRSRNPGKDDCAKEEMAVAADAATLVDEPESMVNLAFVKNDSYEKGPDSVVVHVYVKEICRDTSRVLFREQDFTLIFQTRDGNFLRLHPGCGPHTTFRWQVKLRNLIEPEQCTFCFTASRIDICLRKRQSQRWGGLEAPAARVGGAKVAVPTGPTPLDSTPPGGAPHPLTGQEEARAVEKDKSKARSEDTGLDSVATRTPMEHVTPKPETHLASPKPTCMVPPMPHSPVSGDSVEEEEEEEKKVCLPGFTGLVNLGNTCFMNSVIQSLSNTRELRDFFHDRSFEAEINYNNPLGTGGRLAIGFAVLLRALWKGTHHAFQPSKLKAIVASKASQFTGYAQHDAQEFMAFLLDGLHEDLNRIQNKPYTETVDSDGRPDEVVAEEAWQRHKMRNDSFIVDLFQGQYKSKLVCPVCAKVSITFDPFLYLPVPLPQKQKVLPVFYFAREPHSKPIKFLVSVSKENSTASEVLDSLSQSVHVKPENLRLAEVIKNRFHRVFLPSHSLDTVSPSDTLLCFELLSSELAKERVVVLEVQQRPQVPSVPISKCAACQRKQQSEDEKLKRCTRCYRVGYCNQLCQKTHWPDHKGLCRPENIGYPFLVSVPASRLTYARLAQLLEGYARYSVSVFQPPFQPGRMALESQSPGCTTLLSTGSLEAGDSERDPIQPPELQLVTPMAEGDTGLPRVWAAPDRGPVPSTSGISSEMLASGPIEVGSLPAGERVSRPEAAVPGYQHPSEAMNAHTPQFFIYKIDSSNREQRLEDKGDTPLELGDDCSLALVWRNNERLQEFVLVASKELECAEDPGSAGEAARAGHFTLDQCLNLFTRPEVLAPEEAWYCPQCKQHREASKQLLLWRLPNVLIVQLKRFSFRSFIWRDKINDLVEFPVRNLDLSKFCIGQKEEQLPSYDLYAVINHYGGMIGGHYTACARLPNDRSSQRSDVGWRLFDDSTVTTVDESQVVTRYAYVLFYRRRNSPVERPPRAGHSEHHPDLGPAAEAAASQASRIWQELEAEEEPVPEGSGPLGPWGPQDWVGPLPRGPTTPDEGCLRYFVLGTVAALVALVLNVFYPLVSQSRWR

[7] = Toxicity in high-fat diet-induced obesity model of male C57BL/6J mouse assessed as decrease in total protein content at 25 mg/kg, ip administered twice daily; type: organism-based; set-up: scale not given: the % may be the effect or the level left; conditions: in vivo
Mus musculus [8] = assay: Anti-diabetic activity in high-fat diet-induced obesity model of male C57BL/6J mouse assessed as decrease in plasma insulin at 25 mg/kg, ip administered twice daily; type: functional, organism-based
[9] = Toxicity in high-fat diet-induced obesity model of male C57BL/6J mouse assessed as effect on total protein content at 5 mg/kg, ip administered twice daily; type: organism-based; conditions: in vivo
Mus musculus [10] = assay: Protection against sciatic nerve denervation-induced muscular atrophy in male C57BL/6 mouse assessed as lower loss of tibialis anterior muscle at 75 mg/kg, ip administered twice daily; type: functional, organism-based
Mus musculus [11] = assay: Antiobesity activity in high-fat diet-induced obesity model of male C57BL/6J mouse assessed as decrease in body weight gain at 5 to 25 mg/kg, ip administered twice daily; type: functional, organism-based; conditions: dose 5-25 mg/kg
Mus musculus [12] = assay: Antiobesity activity in high-fat diet-induced obesity model of male C57BL/6J mouse assessed as increase in liver mass at 5 to 25 mg/kg, ip administered twice daily; type: functional, organism-based; conditions: dose 5-25 mg/kg
[13] = Toxicity in high-fat diet-induced obesity model of male C57BL/6J mouse assessed as reduction in body fat at 25 mg/kg, ip administered twice daily; type: organism-based; set-up: scale not given: the % may be the effect or the level left; conditions: in vivo
Mus musculus [14] = assay: Antiobesity activity in high-fat diet-induced obesity model of male C57BL/6J mouse assessed as reduction in epididymal fat mass at 5 to 25 mg/kg, ip administered twice daily; type: functional, organism-based; conditions: dose 5-25 mg/kg
Mus musculus [15] = assay: Antiobesity activity in high-fat diet-induced obesity model of male C57BL/6J mouse assessed as reduction in fat mass at 5 to 25 mg/kg, ip administered twice daily; type: functional; set-up: scale not given: the % may be the effect or the level left; conditions: dose 5-25 mg/kg
Mus musculus [16] = assay: Antiobesity activity in high-fat diet-induced obesity model of male C57BL/6J mouse assessed as reduction in lean mass at 5 to 25 mg/kg, ip administered twice daily; type: functional; set-up: scale not given: the % may be the effect or the level left; conditions: dose 5-25 mg/kg
[17] = Toxicity in high-fat diet-induced obesity model of male C57BL/6J mouse assessed as decrease in total body weight at 25 mg/kg, ip administered twice daily; type: organism-based; set-up: scale not given: the % may be the effect or the level left; conditions: in vivo
[18] = Toxicity in high-fat diet-induced obesity model of male C57BL/6J mouse assessed as increase in body water content at 25 mg/kg, ip administered twice daily; type: organism-based; conditions: in vivo
Mus musculus [19] = assay: Anti-diabetic activity in high-fat diet-induced obesity model of male C57BL/6J mouse assessed as decrease in plasma glucose at 25 mg/kg, ip administered twice daily; type: functional, organism-based
[20] = Inhibition of USP19 in mouse skeletal muscle cell measured by cell target engagement assay; type: cell-based
[21] = molecular target: T1, Ubiquitin carboxyl-terminal hydrolase 19; assay: Inhibition of USP19 (unknown origin) in breast cancer cell measured by cell target engagement assay; set-up: species or system Breast cancer cell line
[22] = Toxicity in high-fat diet-induced obesity model of male C57BL/6J mouse assessed as effect on body water content at 5 mg/kg, ip administered twice daily; type: organism-based; conditions: in vivo
Mus musculus [23] = assay: Protection against sciatic nerve denervation-induced muscular atrophy in male C57BL/6 mouse assessed as decrease in muscle wasting in gastrocnemius muscle at 75 mg/kg, ip administered twice daily; type: functional, organism-based
[24] = Toxicity in high-fat diet-induced obesity model of male C57BL/6J mouse assessed as decrease in total ash content at 25 mg/kg, ip administered twice daily; type: organism-based; set-up: scale not given: the % may be the effect or the level left; conditions: in vivo
[25] = molecular target: T1, Ubiquitin carboxyl-terminal hydrolase 19; assay: Inhibition of USP19 (unknown origin) in neuroblastoma cell measured by cell target engagement assay; type: cell-based

SMILES	IC50 [6]	also measured
CCCCCCCCCCCCCCCC(=O)N[C@@H](CCC(=O)NCCCC[C@H](NC(=O)[C@H](C)NC(=O)[C@H](C)NC(=O)[C@H](CCC(N)=O)NC(=O)CNC(=O)[C@H](CCC(=O)O)NC(=O)[C@H](CC(C)C)NC(=O)[C@H](Cc1ccc(O)cc1)NC(=O)[C@H](CO)NC(=O)[C@H](CO)NC(=O)[C@@H](NC(=O)[C@H](CC(=O)O)NC(=O)[C@H](CO)NC(=O)[C@@H](NC(=O)[C@H](Cc1ccccc1)NC(=O)[C@@H](NC(=O)CNC(=O)[C@H](CCC(=O)O)NC(=O)[C@H](C)NC(=O)[C@@H](N)Cc1cnc[nH]1)[C@@H](C)O)[C@@H](C)O)C(C)C)C(=O)N[C@@H](CCC(=O)O)C(=O)N[C@@H](Cc1ccccc1)C(=O)N[C@H](C(=O)N[C@@H](C)C(=O)N[C@@H](Cc1c[nH]c2ccccc12)C(=O)N[C@@H](CC(C)C)C(=O)N[C@H](C(=O)N[C@@H](CCCNC(=N)N)C(=O)NCC(=O)N[C@@H](CCCNC(=N)N)C(=O)NCC(=O)O)C(C)C)[C@@H](C)CC)C(=O)O [LIRAGLUTIDE]		Activity [1]: -7.9%; Activity [2]: 13%; Activity [3]: -11.6%; Activity [4]: -8.6%; Activity [5]: 17.4%
O=C(c1cn(C[C@]2(O)CCN(C(=O)[C@H](CO)CC(F)(F)F)CC23CCCC3)c(=O)cc1-c1ccccc1)N1CCOCC1	< 500 nM	
O=C(CCC1CCC1)N1CCC(O)(Cn2cnc(-c3ccccc3F)cc2=O)CC1	≥ 50000 nM	
C[C@H](CC1CCCCC1)C(=O)N1CCC(O)(Cn2cnc(-c3ccccc3CN)cc2=O)C(C)(C)C1 (stereo partly drawn)	< 500 nM	
O=C(CCc1ccccc1)N1CCC(O)(Cn2cnc(-c3ccccc3F)cc2=O)CC1	≥ 50000 nM	
C[C@H](CC1CCCCC1)C(=O)N1CC[C@@](O)(Cn2cc(C(=O)N3CCNCC3)c(-c3ccccc3F)cc2=O)C2(CCCC2)C1	< 500 nM	
O=C(C1CNCC1c1ccccc1)N1CC[C@@](O)(Cn2cnc(-c3ccccc3)cc2=O)C2(CCCC2)C1 (stereo partly drawn)	< 500 nM	
C[C@H](CC1CCCCC1)C(=O)N1CC[C@@](O)(Cn2cc(C(=O)N(C)C)c(C3CC3)cc2=O)C2(CCCC2)C1	< 500 nM	
CC(n1cnc(-c2ccccc2)cc1=O)C1(O)CCN(C(=O)[C@H](C)CC2CCCCC2)CC1 (stereo partly drawn)	≤ 5000 nM	
C[C@H](CC1CCCCC1)C(=O)N1CC[C@@](O)(Cn2cc(C(=O)N3CCNCC3)c(-c3ccccc3F)cc2=O)C(C)(C)C1	< 500 nM	
CN(C)C(=O)c1cn(CC2(O)CCN(C(=O)[C@@H]3C[C@@H]3c3ccccc3)CC23CCCC3)c(=O)cc1-c1ccccc1 (stereo partly drawn)	< 500 nM	
CN(C)C(=O)c1cn(C[C@]2(O)CCN(C(=O)[C@H](CO)CC3CCC3)CC2(C)C)c(=O)cc1-c1ccccc1	< 500 nM	
CC(OC1CCCCC1)C(=O)N1CCC(O)(Cn2cnc(-c3ccccc3F)cc2=O)C(C)(C)C1 (stereo not drawn)	≥ 50000 nM	
CN(C)C(=O)c1cn(CC2(O)CCN(C(=O)c3c[nH]nc3-c3ccccc3)CC23CCCC3)c(=O)cc1-c1ccccc1 (stereo not drawn)	≤ 5000 nM	
C[C@H](CC1CCCCC1)C(=O)N1CC[C@@](O)(Cn2cc(C(=O)N3CCNCC3)c(-c3ccccc3)cc2=O)C2(CCCC2)C1	< 500 nM	Activity [7]: -7.2%; Activity (Mus musculus [8]): Active; Activity [9]: Non-Toxic; Activity (Mus musculus [10]): Active; Activity (Mus musculus [11]): Active; Activity (Mus musculus [12]): Active; Activity [13]: 24.9%; Activity (Mus musculus [14]): Active; Activity (Mus musculus [15]): 24%; Activity (Mus musculus [16]): -3%; Activity [17]: 13%; Activity [18]: 11.4%; Activity (Mus musculus [19]): Active; EC50 [20]: 13.5 nM; EC50 [21]: 9.9 nM; Activity [22]: Non-Toxic; Activity (Mus musculus [23]): Active; Activity [24]: -9.6%; EC50 [25]: 32.8 nM
O=C(c1cn(C[C@]2(O)CCN(C(=O)C(CC(F)(F)F)CC(F)(F)F)CC23CCCC3)c(=O)cc1-c1ccccc1)N1CCNCC1	≤ 5000 nM	
C[C@H](CC1CCCCC1)C(=O)N1CC[C@@](O)(Cn2cc(C(=O)N3CCCC3)c(-c3ccccc3)cc2=O)C(C)(C)C1	< 500 nM	
C[C@H](CC(F)(F)F)C(=O)N1CC[C@@](O)(Cn2cc(C(=O)N3CCOCC3)c(-c3ccccc3)cc2=O)C2(CCCC2)C1	< 500 nM	
C[C@H](CC1CCCCC1)C(=O)N1CCC(O)(Cn2cnc(-c3cccc(CO)c3)cc2=O)C(C)(C)C1 (stereo partly drawn)	< 500 nM	
C[C@H](CC(F)(F)F)C(=O)N1CC[C@@](O)(Cn2cc(C(=O)N3CCNCC3)c(-c3ccccc3)cc2=O)C2(CCCC2)C1	< 500 nM	
CN(C)C(=O)c1cn(CC2(O)CCN(C(=O)C(O)CC3CCCCC3)CC23CCCC3)c(=O)cc1-c1ccccc1 (stereo not drawn)	< 500 nM	
O=C(CCC1CCCC1)N1CCC(O)(Cn2cnc(-c3ccccc3F)cc2=O)CC1	≥ 50000 nM	
C[C@H](CC1CCCCC1)C(=O)N1CCC(O)(Cn2cc(C(=O)N(C)C)c(N(C)C)cc2=O)C2(CCCC2)C1 (stereo partly drawn)	< 500 nM	
C[C@H](CC1CCCCC1)C(=O)N1CCC(O)(Cn2cnc(-c3ccsc3)cc2=O)C(C)(C)C1 (stereo partly drawn)	< 500 nM	
CCOC(=O)c1cn(C[C@]2(O)CCN(C(=O)[C@H](C)CC3CCCCC3)CC23CCCC3)c(=O)cc1-c1ccccc1	< 500 nM	
